IC50 data for 16 compounds are collected here from patent publication US20260159512A1, “BCAT2 INHIBITORS” (AGIOS PHARMACEUTICALS, INC., priority 2021, published 2026).

What all share (settings): average where tested multiple times
Assay [1] concerns the target T1, BCAT2 (Homo sapiens, UniProt O15382).
T1 sequence (O15382 28-392): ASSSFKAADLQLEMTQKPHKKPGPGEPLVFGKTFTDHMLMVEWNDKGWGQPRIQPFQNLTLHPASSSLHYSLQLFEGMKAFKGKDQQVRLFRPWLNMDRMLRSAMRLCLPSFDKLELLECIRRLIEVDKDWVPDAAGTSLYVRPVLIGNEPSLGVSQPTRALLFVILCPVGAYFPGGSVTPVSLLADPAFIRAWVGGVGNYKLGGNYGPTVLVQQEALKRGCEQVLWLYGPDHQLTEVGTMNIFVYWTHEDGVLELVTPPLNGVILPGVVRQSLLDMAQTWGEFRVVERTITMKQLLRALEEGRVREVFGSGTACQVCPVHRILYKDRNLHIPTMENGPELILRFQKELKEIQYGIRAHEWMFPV
Nature of the assay: BCAT2 in vitro enzyme inhibition assay (resazurin/diaphorase-coupled fluorescence). Format: biochemical. An outline of the steps:
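Coupled fluorescence readout: glutamate formed from L-leucine/α-ketoglutarate transamination drives GDH/NAD/diaphorase reduction of resazurin (Ex 540/Em 590). Human BCAT2 was first exposed 1 h at room temperature to compound, top final 100 μM in 3-fold, 10-point series; substrate reaction ran 1 h before SDS quench, in technical duplicate with DMSO max and enzyme-free min controls.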
(Resazurin is reduced to fluorescent resorufin, in cell work by metabolically active cells.)

Another assay deals with T2, hBCAT1 (Homo sapiens, UniProt P54687).
T2 sequence (P54687 1-386): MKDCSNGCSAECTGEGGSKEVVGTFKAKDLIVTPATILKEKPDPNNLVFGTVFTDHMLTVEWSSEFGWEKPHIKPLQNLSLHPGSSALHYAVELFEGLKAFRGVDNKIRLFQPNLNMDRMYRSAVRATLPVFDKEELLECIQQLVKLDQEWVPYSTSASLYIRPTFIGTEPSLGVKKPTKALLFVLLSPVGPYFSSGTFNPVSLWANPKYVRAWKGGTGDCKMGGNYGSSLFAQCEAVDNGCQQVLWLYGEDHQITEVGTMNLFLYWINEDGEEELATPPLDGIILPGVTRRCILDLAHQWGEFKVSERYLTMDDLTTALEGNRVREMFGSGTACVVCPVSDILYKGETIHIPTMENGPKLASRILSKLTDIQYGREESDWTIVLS
As to the kind of experiment: BCAT1 in vitro enzyme inhibition assay (resazurin/diaphorase-coupled fluorescence). Format: biochemical. An outline of the steps:
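Human BCAT1 activity read by resazurin/diaphorase-coupled fluorescence. Compounds added from 50× DMSO stocks at 1:50, giving 10-point 3-fold titrations from 100 μM top final concentration. Run in technical duplicate; repeat tests averaged.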

For assay [2], the target named is T1, BCAT2. Nature of the assay: BCAT2 in vitro cell inhibition using engineered A549 cells (KMV cell assay, 13C6-KMV by LC-MS/MS). Format: cell-based. On the set-up: The result was an engineered A549 cell line that expressed endogenous BCAT2; endogenous in cells; host or cells: A549 cells with MUT and BCAT1 knocked out by CRISPR/CAS9.

Molecules are shown by their SMILES. Bounds are passed on as bounds.

For the compound `O=C(N[C@H]1CCC[C@@H](n2c(-c3ncccc3F)nc3cnc(-n4nccn4)cc32)C1)c1ncc(C(F)(F)F)s1` [Example 65, N-((1S,3R)-3-(2-(3-fluoropyridin-2-yl)-6-(2H-1,2,3-triazol-2-yl)-1H-imidazo[4,5-c]pyridin-1-yl)cyclohexyl)-5-(trifluoromethyl)thiazole-2-carboxamide], the values for the IC50 against BCAT2 [1], at hBCAT1 and against BCAT2 [2] were not above 100 nM, 500 to 1000 nM and not above 100 nM, respectively.

As to `N#Cc1cnc(C(=O)N[C@H]2CCC[C@@H](n3c(-c4ncccc4F)nc4cnc(-n5nccn5)cc43)C2)s1` [Example 66, 5-cyano-N-((1S,3R)-3-(2-(3-fluoropyridin-2-yl)-6-(2H-1,2,3-triazol-2-yl)-1H-imidazo[4,5-c]pyridin-1-yl)cyclohexyl)thiazole-2-carboxamide], the IC50 (usually the point on the concentration scale where inhibition reaches its midpoint) against BCAT2 [1] was not above 100 nM; against hBCAT1, less than 500 nM; against BCAT2 [2], not above 100 nM.

As to `O=C(N[C@H]1CCC[C@@H](n2c(-n3nccn3)nc3cnc(-n4nccn4)cc32)C1)c1ncc(C(F)F)s1` [Example 67, N-((1S,3R)-3-(2,6-di(2H-1,2,3-triazol-2-yl)-1H-imidazo[4,5-c]pyridin-1-yl)cyclohexyl)-5-(difluoromethyl)thiazole-2-carboxamide], the values for the 50% inhibitory concentration (IC50) at BCAT2 [1], against hBCAT1 and against BCAT2 [2] were 100 to 500 nM, more than 5000 nM and more than 1000 nM, respectively.

In the case of `O=C(N[C@H]1CCC[C@@H](n2c(-c3ccccc3F)nc3cnc(-c4nc[nH]n4)cc32)C1)c1ncc(C(F)F)s1` [Example 68, 5-(difluoromethyl)-N-[(1S,3R)-3-[2-(2-fluorophenyl)-6-(1H-1,2,4-triazol-3-yl)imidazo[4,5-c]pyridin-1-yl]cyclohexyl]thiazole-2-carboxamide], the IC50 was not above 100 nM on BCAT2 [1], less than 500 nM at hBCAT1 and not above 100 nM against BCAT2 [2].

As to `O=C(N[C@H]1CCC[C@@H](n2c(Nc3ccccn3)nc3cnc(-n4nccn4)cc32)C1)c1ncc(C(F)F)s1` [Example 69, 5-(difluoromethyl)-N-((1S,3R)-3-(2-(pyridin-2-ylamino)-6-(2H-1,2,3-triazol-2-yl)-1H-imidazo[4,5-c]pyridin-1-yl)cyclohexyl)thiazole-2-carboxamide], the half-maximal inhibitory concentration (IC50) on BCAT2 [1] was 100 to 500 nM; on hBCAT1, more than 5000 nM; against BCAT2 [2], more than 1000 nM.

On to `O=C(N[C@H]1CCC[C@@H](n2c(-c3ccccc3F)nc3cnc(-n4nccn4)cc32)C1)c1ncc(Cl)s1` [Example 71, 5-chloro-N-((1S,3R)-3-(2-(2-fluorophenyl)-6-(2H-1,2,3-triazol-2-yl)-1H-imidazo[4,5-c]pyridin-1-yl)cyclohexyl)thiazole-2-carboxamide], for which the results for the IC50 on BCAT2 [1], on hBCAT1 and on BCAT2 [2] were not above 100 nM, less than 500 nM and not above 100 nM, respectively.

Regarding `O=C(N[C@H]1CCC[C@@H](n2c(-c3ccccc3F)nc3cnc(-n4nccn4)cc32)C1)c1ccc(Cl)s1` [Example 72, 5-chloro-N-((1S,3R)-3-(2-(2-fluorophenyl)-6-(2H-1,2,3-triazol-2-yl)-1H-imidazo[4,5-c]pyridin-1-yl)cyclohexyl)thiophene-2-carboxamide], the figures for the 50% inhibitory concentration (IC50) at BCAT2 [1], at hBCAT1 and at BCAT2 [2] were not above 100 nM, less than 500 nM and not above 100 nM, respectively.

On to `O=C(N[C@H]1CCC[C@@H](n2c(Nc3ccccc3)nc3cnc(-n4nccn4)cc32)C1)c1ncc(C(F)F)s1` [Example 73, 5-(difluoromethyl)-N-((1S,3R)-3-(2-(phenylamino)-6-(2H-1,2,3-triazol-2-yl)-1H-imidazo[4,5-c]pyridin-1-yl)cyclohexyl)thiazole-2-carboxamide], for which the IC50 against BCAT2 [1] was not above 100 nM; on hBCAT1, more than 5000 nM; against BCAT2 [2], more than 1000 nM.

For `CC(C)Cc1nc2cnc(-n3nccn3)cc2n1[C@@H]1CCC[C@H](NC(=O)c2ccc(Cl)s2)C1` [Example 74, 5-chloro-N-((1S,3R)-3-(2-isobutyl-6-(2H-1,2,3-triazol-2-yl)-1H-imidazo[4,5-c]pyridin-1-yl)cyclohexyl)thiophene-2-carboxamide], the values for the concentration for half-maximal inhibition (IC50) against BCAT2 [1], against hBCAT1 and against BCAT2 [2] were not above 100 nM, less than 500 nM and not above 100 nM, respectively.

On to `O=C(N[C@H]1CCC[C@@H](n2c(-c3ncccc3F)nc3cnc(-c4nc[nH]n4)cc32)C1)c1ncc(C(F)F)s1` [Example 75, 5-(difluoromethyl)-N-((1S,3R)-3-(2-(3-fluoropyridin-2-yl)-6-(1H-1,2,4-triazol-3-yl)-1H-imidazo[4,5-c]pyridin-1-yl)cyclohexyl)thiazole-2-carboxamide], for which the IC50 against BCAT2 [1] was not above 100 nM; on hBCAT1 it was less than 500 nM; against BCAT2 [2] it was not above 100 nM.

Regarding `O=C(N[C@H]1CCC[C@@H](n2c(-c3ncccc3F)nc3cnc(-n4nccn4)cc32)C1)c1ccc(Cl)s1` [Example 76, 5-chloro-N-((1S,3R)-3-(2-(3-fluoropyridin-2-yl)-6-(2H-1,2,3-triazol-2-yl)-1H-imidazo[4,5-c]pyridin-1-yl)cyclohexyl)thiophene-2-carboxamide], the half-maximal inhibitory concentration (IC50) against BCAT2 [1] was not above 100 nM; at hBCAT1, less than 500 nM; against BCAT2 [2], not above 100 nM.

As to `O=C(N[C@H]1CCC[C@@H](n2c(-c3ccccc3F)nc3cnc(-c4ccn[nH]4)cc32)C1)c1ncc(C(F)F)s1` [Example 77, 5-(difluoromethyl)-N-((1S,3R)-3-(2-(2-fluorophenyl)-6-(1H-pyrazol-5-yl)-1H-imidazo[4,5-c]pyridin-1-yl)cyclohexyl)thiazole-2-carboxamide], the concentration for half-maximal inhibition (IC50) at BCAT2 [1] was not above 100 nM; against hBCAT1, less than 500 nM; on BCAT2 [2], not above 100 nM.

With `O=C(N[C@H]1CCC[C@@H](n2c(-c3ncccc3F)nc3cnc(-c4ccn[nH]4)cc32)C1)c1ccc(Cl)s1` [Example 78, 5-chloro-N-((1S,3R)-3-(2-(3-fluoropyridin-2-yl)-6-(1H-pyrazol-5-yl)-1H-imidazo[4,5-c]pyridin-1-yl)cyclohexyl)thiophene-2-carboxamide], the IC50 at BCAT2 [1] was not above 100 nM; against hBCAT1 it was less than 500 nM; against BCAT2 [2], not above 100 nM.

On to `CC(C)Oc1nc2cnc(-n3nccn3)cc2n1[C@@H]1CCC[C@H](NC(=O)c2ncc(C(F)F)s2)C1` [Example 79, 5-(difluoromethyl)-N-((1S,3R)-3-(2-isopropoxy-6-(2H-1,2,3-triazol-2-yl)-1H-imidazo[4,5-c]pyridin-1-yl)cyclohexyl)thiazole-2-carboxamide], for which the IC50 is 100 to 500 nM against BCAT2 [1], more than 5000 nM at hBCAT1 and more than 1000 nM against BCAT2 [2].

On to `O=C(N[C@H]1CCC[C@@H](n2c(-c3ncccc3F)nc3cnc(-c4nc[nH]n4)cc32)C1)c1ccc(Cl)s1` [Example 80, 5-chloro-N-((1S,3R)-3-(2-(3-fluoropyridin-2-yl)-6-(1H-1,2,4-triazol-3-yl)-1H-imidazo[4,5-c]pyridin-1-yl)cyclohexyl)thiophene-2-carboxamide], for which the IC50 against BCAT2 [1] is not above 100 nM; against hBCAT1 it was less than 500 nM; against BCAT2 [2] it was not above 100 nM.

Regarding `O=C(N[C@H]1CCC[C@@H](n2c(-c3ccccc3F)nc3cnc(-c4cn[nH]c4)cc32)C1)c1ncc(Cl)s1` [Example 81, 5-chloro-N-((1S,3R)-3-(2-(2-fluorophenyl)-6-(1H-pyrazol-4-yl)-1H-imidazo[4,5-c]pyridin-1-yl)cyclohexyl)thiazole-2-carboxamide], the values for the IC50 at BCAT2 [1], against hBCAT1 and at BCAT2 [2] were not above 100 nM, less than 500 nM and 100 to 500 nM, respectively.
